In US6407064B2, “Aminoalcohol derivative and medicament comprising the same” (Seikagaku Corporation, priority 1999, dated 2002):

Columns and labels:
[1] = system: cultured neurocytes of rat fetal cerebral cortex; test: Activity of accelerating synapse formation (intracellular calcium ion level, fura-2); type: cell-based; conditions: relative value, L-PDMP regarded as 100; compound 20 μM; assay on 10th day of culture
Experimental: The activity of accelerating synapse formation was determined by measuring change of an intracellular calcium ion level resulted from the synchronized spontaneous ignition of neurocytes which is considered to show synapse activities by means of an intracellular calcium ion multipoint observation system using a calcium ion fluorescence indicator, fura-2.
Concretely, rat fetuses at the 18th day of pregnancy were taken out from Wistar rats (available from Japan SLC), and cerebral cortices of the fetuses were taken out and cut into small pieces. After having been treated with papain (manufactured by Worthington Biochemical) at 37° C. for 30 minutes, the pieces were suspended into a Dulbecco modified Eagle's medium containing 5% bovine neonatal serum and 5% equine serum and the cortices were dissociated into single cells with Cell Striner (70 μm, Falcon). Then, the cells were inoculated into a flexiperm plate coated with 0.5% polyethyleneimine (1.0×10^6 cells/500 μl/well), and was cultured in 7% CO2 incubator at 37° C. The medium was exchanged on 2nd, 5th, and 8th days after the culture had been started. The activity of the compound of the present invention was measured using the primary culture. The compound was added at the time when the medium was exchanged and the concentration of the compound was maintained to be 20 μM. Assay was carried out on 10th day after the culture had been started.
(2) Measurement of Activity of Accelerating Synapse Formation
Concretely, after the medium of each well where cells were cultured was substituted with basic salt solution (BSS), 3 μl of a DMSO solution (1 mg/ml) of a calcium ion fluorescence indicator fura-2 was added, and the whole was kept at 37° C. for 1 hour.

[2] = system: enzyme for ganglioside GM3 synthesis, mouse B16 melanoma cell; test: Activity of enzyme for ganglioside GM3 synthesis (14C-Gal incorporated in total lipid fraction); type: cell-based; conditions: relative value, control regarded as 100; test compound 24 μM, 24 hours; 14C-Gal incorporation
Experimental: The gangliosides produced by mouse B16 melanoma cell are almost composed of ganglioside GM3. Therefore, the activity of the enzyme for ganglioside GM3 synthesis can be determined conveniently by measuring the amount of ^14C-Gal incorporated in a total lipid-extracted fraction through a liquid layer partition method.
A liquid where the cells of mouse B16 melanoma were suspended was prepared with Dulbecco modified Eagle's medium containing 10% bovine fetal serum, inoculated into a 12-well plate in an amount of 2.0×10^5 cells/ml/well, and cultured in 5% CO2 incubator at 37° C. The treatment with a test compound (24 μM) and the addition of ^14C-Gal (22.2 kBq/11.7 nmol/6 μl/well) were started through the exchange of total amount of the medium 24 hours after the culture was started. Twenty-four hours after the treatment with the test compound was started, the culture mixture was treated with PBS containing 0.02% EDTA and PBS containing 0.25% trypsin successively to recover the cells.
Then, a mixed solvent of chloroform:methanol=2:1 (3 ml) was added to the cell pellet and, after the subjection to an ultrasonication for 30 minutes, the supernatant was recovered. Furthermore, a mixed solvent of chloroform:methanol=1:1 (3 ml) was added to the residual pellet after the recovery of the supernatant, and a similar operation was carried out. The resulting supernatant was combined with the first supernatant and the whole was evaporated to dryness under a nitrogen stream. A desalinated water (1.0 ml) was added to the total lipid-extracted fraction. After having been subjected to an ultrasonication for 1 minute, the mixture was transferred into a dialysis tube and dialyzed against water for 2 days. The sample after the dialysis was transferred into a vial for liquid scintillation counter and, after the addition of scintillator, the activity of incorporating ^14C-Gal was measured on scintillation counter.
The values of activity of the compounds of the present invention are shown as relative values obtained by calculation on the basis that the value of a control (a group where no test compound was added) is regarded as 100 in Table 3 below.

[3] = system: enzyme for GQ1b synthesis; conditions: Biochem. Biophys. Res. Commun. 237: 595-600 (1997); cited from earlier work

## CCCCCCCCCC(=O)N[C@@H](CN1CCOCC1)[C@@H](O)c1ccccc1 [L-PDMP, (1S,2S)-1-phenyl-2-decanoylamino-3-morpholino-1-propanol, reference compound]
[1]
  Activity of synapse formation: 100.0
[2]
  Activity of accelerating glycolipid biosynthesis (Test Example 2): 95.2
[3]
  effect on activity of enzyme for GQ1b synthesis: increases the activity of an enzyme for GQ1b synthesis
